Results taken from ChEMBL document CHEMBL1201862, “PubChem BioAssay data set” (2004).
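Briefly, cells in 96-well plates were exposed to five compound concentrations for 48 h, and endpoints were estimated by linear interpolation. Abbreviation: GI50, concentration required for 50% inhibition of growth.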 Activity calls are given as the source filed them. Cut-off read from the data, not from the text of the source: active = GI50 up to about 1.1 µM and inactive = higher.

What was measured:
Experiment in all cases: inhibition of tumour cell growth, NCI panel, 48 h
SR = system: SR
T47D = system: T47D
A549 = system: A549
SNB-19 = system: SNB-19
PC-3 = system: PC-3
U-251 = system: U-251
NCI-H460 = system: NCI-H460
HOP-62 = system: HOP-62
MCF7 = system: MCF7
EKVX = system: EKVX
K562 = system: K562
TK-10 = system: TK-10
LOX IMVI = system: LOX IMVI
SN12C = system: SN12C
DU-145 = system: DU-145
Hs-578T = system: Hs-578T
KM12 = system: KM12
ACHN = system: ACHN
SF-268 = system: SF-268
MOLT-4 = system: MOLT-4
SNB-75 = system: SNB-75
NCI/ADR-RES = system: NCI/ADR-RES
HT-29 = system: HT-29
SK-OV-3 = system: SK-OV-3
786-0 = system: 786-0
HL-60 = system: HL-60
Malme-3M = system: Malme-3M
A498 = system: A498
OVCAR-5 = system: OVCAR-5
SK-MEL-28 = system: SK-MEL-28
RPMI-8226 = system: RPMI-8226
NCI-H522 = system: NCI-H522
HCC 2998 = system: HCC 2998
CAKI-1 = system: CAKI-1
MDA-N = system: MDA-N
COLO 205 = system: COLO 205
MDA-MB-435 = system: MDA-MB-435
SK-MEL-2 = system: SK-MEL-2
HOP-92 = system: HOP-92
BT-549 = system: BT-549
SF-539 = system: SF-539
NCI-H226 = system: NCI-H226
UO-31 = system: UO-31
SK-MEL-5 = system: SK-MEL-5
OVCAR-8 = system: OVCAR-8
IGROV-1 = system: IGROV-1
CCRF-CEM = system: CCRF-CEM
SW-620 = system: SW-620
NCI-H23 = system: NCI-H23
MDA-MB-231 = system: MDA-MB-231
HCT-116 = system: HCT-116
UACC-257 = system: UACC-257
OVCAR-3 = system: OVCAR-3
UACC-62 = system: UACC-62
HCT-15 = system: HCT-15
SF-295 = system: SF-295
OVCAR-4 = system: OVCAR-4
M14 = system: M14

COc1ccc(NC(=S)N/N=C(\C)c2nc3cccnc3[nH]2)cc1
GI50 (SR): 3.86 µM (inactive)
GI50 (T47D): 3.26 µM (inactive)
GI50 (A549): 5.53 µM (inactive)
GI50 (SNB-19): 5.32 µM (inactive)
GI50 (PC-3): 4.48 µM (inactive)
GI50 (U-251): 3.87 µM (inactive)
GI50 (NCI-H460): 2.94 µM (inactive)
GI50 (HOP-62): 7.5 µM (inactive)
GI50 (MCF7): 3.41 µM (inactive)
GI50 (EKVX): 2.32 µM (inactive)
GI50 (K562): 3.58 µM (inactive)
GI50 (TK-10): 0.637 µM (active)
GI50 (LOX IMVI): 3.18 µM (inactive)
GI50 (SN12C): 5.65 µM (inactive)
GI50 (DU-145): 6.17 µM (inactive)
GI50 (Hs-578T): 19.6 µM (inactive)
GI50 (KM12): 5.47 µM (inactive)
GI50 (ACHN): 4.29 µM (inactive)
GI50 (SF-268): 4.04 µM (inactive)
GI50 (MOLT-4): 3.41 µM (inactive)
GI50 (SNB-75): 12.5 µM (inactive)
GI50 (NCI/ADR-RES): 6.62 µM (inactive)
GI50 (HT-29): 5.37 µM (inactive)
GI50 (SK-OV-3): 13.5 µM (inactive)
GI50 (786-0): 4.99 µM (inactive)
GI50 (HL-60): 2.69 µM (inactive)
GI50 (Malme-3M): 7.59 µM (inactive)
GI50 (A498): 14.3 µM (inactive)
GI50 (OVCAR-5): 6.11 µM (inactive)
GI50 (SK-MEL-28): 6.46 µM (inactive)
GI50 (RPMI-8226): 4.35 µM (inactive)
GI50 (NCI-H522): 7.03 µM (inactive)
GI50 (HCC 2998): 7.55 µM (inactive)
GI50 (CAKI-1): 3.96 µM (inactive)
GI50 (MDA-N): 11.7 µM (inactive)
GI50 (COLO 205): 4.52 µM (inactive)
GI50 (MDA-MB-435): 6.62 µM (inactive)
GI50 (SK-MEL-2): 16.4 µM (inactive)
GI50 (HOP-92): 4.4 µM (inactive)
GI50 (BT-549): 4.57 µM (inactive)
GI50 (SF-539): 2.9 µM (inactive)
GI50 (NCI-H226): 3.73 µM (inactive)
GI50 (UO-31): 1.97 µM (inactive)
GI50 (SK-MEL-5): 4.33 µM (inactive)
GI50 (OVCAR-8): 3.19 µM (inactive)
GI50 (IGROV-1): 5.55 µM (inactive)
GI50 (CCRF-CEM): 2.45 µM (inactive)
GI50 (SW-620): 6.87 µM (inactive)
GI50 (NCI-H23): 10 µM (inactive)
GI50 (MDA-MB-231): 5.9 µM (inactive)
GI50 (HCT-116): 3.02 µM (inactive)
GI50 (UACC-257): 3.52 µM (inactive)
GI50 (OVCAR-3): 1.79 µM (inactive)
GI50 (UACC-62): 3.93 µM (inactive)
GI50 (HCT-15): 4.36 µM
GI50 (SF-295): 3.13 µM (inactive)
GI50 (OVCAR-4): 4.94 µM (inactive)

Cc1cc(C)n(-c2nc3ccccc3c(=O)[nH]2)n1
GI50 (SR): 0.906 µM (active)
GI50 (T47D): 11 µM (inactive)
GI50 (A549): 2.95 µM (inactive)
GI50 (SNB-19): 11.9 µM (inactive)
GI50 (PC-3): 5.96 µM (inactive)
GI50 (U-251): 3.24 µM (inactive)
GI50 (NCI-H460): 1.21 µM (inactive)
GI50 (HOP-62): 2.29 µM (inactive)
GI50 (MCF7): 3.78 µM (inactive)
GI50 (EKVX): 5.42 µM (inactive)
GI50 (K562): 1.64 µM (inactive)
GI50 (TK-10): > 50.8 µM (inactive)
GI50 (LOX IMVI): 1.41 µM (inactive)
GI50 (SN12C): 4.34 µM (inactive)
GI50 (DU-145): 5.89 µM (inactive)
GI50 (Hs-578T): 24.8 µM (inactive)
GI50 (KM12): 5.94 µM (inactive)
GI50 (ACHN): 2.49 µM (inactive)
GI50 (SF-268): 4.1 µM (inactive)
GI50 (MOLT-4): 1.6 µM (inactive)
GI50 (SNB-75): 14.1 µM (inactive)
GI50 (NCI/ADR-RES): 1.53 µM (inactive)
GI50 (HT-29): 2.74 µM (inactive)
GI50 (SK-OV-3): 8.65 µM (inactive)
GI50 (786-0): 2.24 µM (inactive)
GI50 (HL-60): 1.32 µM (inactive)
GI50 (A498): 23.2 µM (inactive)
GI50 (OVCAR-5): > 77.3 µM (inactive)
GI50 (SK-MEL-28): 6.82 µM (inactive)
GI50 (RPMI-8226): 3.92 µM (inactive)
GI50 (NCI-H522): 2.81 µM (inactive)
GI50 (HCC 2998): 14.8 µM (inactive)
GI50 (CAKI-1): 3.02 µM (inactive)
GI50 (MDA-N): 32.6 µM (inactive)
GI50 (COLO 205): 2.43 µM (inactive)
GI50 (M14): 3.75 µM (inactive)
GI50 (MDA-MB-435): 1.86 µM (inactive)
GI50 (SK-MEL-2): 8.47 µM (inactive)
GI50 (HOP-92): 21.7 µM (inactive)
GI50 (BT-549): 18.8 µM (inactive)
GI50 (SF-539): 4.4 µM (inactive)
GI50 (UO-31): 3.77 µM (inactive)
GI50 (SK-MEL-5): 2.64 µM (inactive)
GI50 (OVCAR-8): 0.863 µM (active)
GI50 (IGROV-1): 1.5 µM (inactive)
GI50 (CCRF-CEM): 0.356 µM (active)
GI50 (SW-620): 3.28 µM (inactive)
GI50 (NCI-H23): 7.96 µM (inactive)
GI50 (MDA-MB-231): 11 µM (inactive)
GI50 (HCT-116): 1.88 µM (inactive)
GI50 (UACC-257): 33.6 µM (inactive)
GI50 (OVCAR-3): 4.11 µM (inactive)
GI50 (UACC-62): 2.78 µM (inactive)
GI50 (HCT-15): 2.11 µM
GI50 (SF-295): 2.1 µM (inactive)
GI50 (OVCAR-4): 56.6 µM (inactive)
